Assay results as given in patent US4356186A, “Acetic acid derivatives and composition containing the same” (priority 1980, dated 1982).
Read-outs that look alike come from different tables or passages of the source.

Key:
stomach ulcer = test: Gastrointestinal ulcerogenicity; type: in vivo, Male Wistar rats; parameters: key to Average score of stomach ulcer: ulcer score 1 to 4, 4 = most severe ulcer; settings: for Number of rats having a score of stomach ulcer of 2 or more/total number of rats used / Average score of stomach ulcer: after 6 hours; for Average score of stomach ulcer: score 1 to 4; for gastrointestinal ulcerogenicity compared with the known aspirin: in words, from Table 2
Description: Gastrointestinal ulcerogenicity
The test was carried out in a similar manner as disclosed in Arzneim. Forsch., 19, 36 (1969).
Male Wistar rats, weighing 130-180 g, were used. After the rats were fasted for 24 hours, the test compound was orally administered one time. After 6 hours, the rats were killed and the stomach was removed. […] The degree of stomach ulcer was scored from 1 to 4, wherein 4 is the most severe ulcer. In Table 2, there are shown the average score of stomach ulcer in each dose and also the ratio of the number of rats having a score of stomach ulcer of 2 or more to total number of rats used.

[1] = tested on: carrageenin-induced hind paw edema; test: Anti-inflammatory activity (carrageenin-induced hind paw edema in rats); type: in vivo, Male Wistar rats; settings: for inhibition in vivo at 1 mg/kg / inhibition in vivo at 2 mg/kg / inhibition in vivo at 4 mg/kg / inhibition in vivo at 8 mg/kg / inhibition in vivo at 5 mg/kg / inhibition in vivo at 20 mg/kg / inhibition in vivo at 40 mg/kg / inhibition in vivo at 80 mg/kg / inhibition in vivo at 160 mg/kg / inhibition in vivo at 0.2 mg/kg / inhibition in vivo at 0.4 mg/kg / inhibition in vivo at 0.8 mg/kg / inhibition in vivo at 1.6 mg/kg / inhibition in vivo at 3.2 mg/kg: Rattus norvegicus, po; for inhibition in vivo at 1 mg/kg: 1 mg/kg p.o.; for inhibition in vivo at 4 mg/kg: 4 mg/kg p.o.; for inhibition in vivo at 8 mg/kg: 8 mg/kg p.o.; for inhibition in vivo at 0.2 mg/kg: 0.2 mg/kg p.o.; for inhibition in vivo at 0.4 mg/kg: 0.4 mg/kg p.o.; for inhibition in vivo at 0.8 mg/kg: 0.8 mg/kg p.o.; for inhibition in vivo at 1.6 mg/kg: 1.6 mg/kg p.o.; for inhibition in vivo at 3.2 mg/kg: 3.2 mg/kg p.o.
Description: Anti-inflammatory activity (carrageenin-induced hind paw edema in rats)
The test was carried out in a similar manner as disclosed in Proc. Soc. Exptl.
Male Wistar rats, weighing 100-300 g, were used. A 1% aqueous carrageenin solution (0.1 ml) was administered subcutaneously into the hind foot pad of rats. Two and three hours after the carrageenin injection, the paw volume was measured and the swelling rate was calculated based on the paw volume before the carrageenin injection. The inhibitory rate was determined as compared with the average swelling rate of the control group to which only vehicle was administered. The test compounds were administered orally one hour before the carrageenin injection.

[2] = 2 h, two hours, read-out: Inhibitory rate, two hours after the carrageenin injection
[3] = 2 h, 2 mg/kg p.o., two hours, read-out: Inhibitory rate, two hours after the carrageenin injection
[4] = 3 h, three hours, read-out: Inhibitory rate, three hours after the carrageenin injection
[5] = 3 h, 2 mg/kg p.o., three hours, read-out: Inhibitory rate, three hours after the carrageenin injection
[6] = 2 h, read-out: Inhibitory rate, two hours after the carrageenin injection
[7] = 3 h, read-out: Inhibitory rate, three hours after the carrageenin injection
[8] = 2 h, 5 mg/kg p.o., two hours, read-out: Inhibitory rate, two hours after the carrageenin injection
[9] = 3 h, 5 mg/kg p.o., three hours, read-out: Inhibitory rate, three hours after the carrageenin injection

| SMILES | Average score of stomach ulcer (stomach ulcer; 8 mg/kg p.o.) | Number of rats having a score of stomach ulcer of 2 or more/total number of rats used (stomach ulcer; 16 mg/kg p.o.) | Average score of stomach ulcer (stomach ulcer; 16 mg/kg p.o.) | Number of rats having a score of stomach ulcer of 2 or more/total number of rats used (stomach ulcer; 32 mg/kg p.o.) | Average score of stomach ulcer (stomach ulcer; 32 mg/kg p.o.) | inhibition in vivo at 2 mg/kg [1, 3] | inhibition in vivo at 2 mg/kg [1, 5] | Number of rats having a score of stomach ulcer of 2 or more/total number of rats used (stomach ulcer; 64 mg/kg p.o.) | Average score of stomach ulcer (stomach ulcer; 64 mg/kg p.o.) | inhibition in vivo at 5 mg/kg [1, 8] | inhibition in vivo at 5 mg/kg [1, 9] | also measured |
| --- | --- | --- | --- | --- | --- | --- | --- | --- | --- | --- | --- | --- |
| CC(C(N)=O)c1ccc2c(c1)SCC1CCCCC1C2=O (single isomer, unassigned) [R, 2-(6,6a,7,8,9,10,10a,11-Octahydro-11-oxodibenzo[b,e]thiepin-3-yl)propionamide-A] | 0.00 | 4/6 | 1.67 | 3/3 | 2.33 | 30.7% | 27.6% |  |  |  |  | Number of rats having a score of stomach ulcer of 2 or more/total number of rats used (stomach ulcer; 8 mg/kg p.o.): 0/3; inhibition in vivo at 1 mg/kg [1, 2]: 29.3%; inhibition in vivo at 4 mg/kg [1, 2]: 38.4%; inhibition in vivo at 8 mg/kg [1, 2]: 43.6%; inhibition in vivo at 1 mg/kg [1, 4]: 24.7%; inhibition in vivo at 4 mg/kg [1, 4]: 37.7%; inhibition in vivo at 8 mg/kg [1, 4]: 36% |
| COc1ccc2c(c1)c(CC(=O)O)c(C)n2C(=O)c1ccc(Cl)cc1 [Compound 1, Indomethacin, reference compound] | 1.78 |  | 2.56 |  |  |  |  |  |  |  |  | Average score of stomach ulcer (stomach ulcer; 4 mg/kg p.o.): 0.50; inhibition in vivo at 2 mg/kg [1, 6]: 20.5%; inhibition in vivo at 5 mg/kg [1, 6]: 42.4%; inhibition in vivo at 2 mg/kg [1, 7]: 19.3%; inhibition in vivo at 5 mg/kg [1, 7]: 36.3% |
| CC(=O)Oc1ccccc1C(=O)O [Compound 2, Aspirin, reference compound] |  |  |  |  |  |  |  |  |  |  |  | Number of rats having a score of stomach ulcer of 2 or more/total number of rats used (stomach ulcer; 20 mg/kg p.o.): 0/6; Average score of stomach ulcer (stomach ulcer; 20 mg/kg p.o.): 0.83; Number of rats having a score of stomach ulcer of 2 or more/total number of rats used (stomach ulcer; 40 mg/kg p.o.): 3/6; Average score of stomach ulcer (stomach ulcer; 40 mg/kg p.o.): 1.33; Number of rats having a score of stomach ulcer of 2 or more/total number of rats used (stomach ulcer; 60 mg/kg p.o.): 5/6; Average score of stomach ulcer (stomach ulcer; 60 mg/kg p.o.): 2.33; Number of rats having a score of stomach ulcer of 2 or more/total number of rats used (stomach ulcer; 80 mg/kg p.o.): 5/6; Average score of stomach ulcer (stomach ulcer; 80 mg/kg p.o.): 3.33; Number of rats having a score of stomach ulcer of 2 or more/total number of rats used (stomach ulcer; 160 mg/kg p.o.): 6/6; Average score of stomach ulcer (stomach ulcer; 160 mg/kg p.o.): 4.00; inhibition in vivo at 20 mg/kg [1, 6]: 14.1%; inhibition in vivo at 40 mg/kg [1, 6]: 22.9%; inhibition in vivo at 80 mg/kg [1, 6]: 30.8%; inhibition in vivo at 160 mg/kg [1, 6]: 35.1%; inhibition in vivo at 20 mg/kg [1, 7]: 9%; inhibition in vivo at 40 mg/kg [1, 7]: 21.2%; inhibition in vivo at 80 mg/kg [1, 7]: 25.9%; inhibition in vivo at 160 mg/kg [1, 7]: 30.9% |
| CC(C(=O)O)c1ccc2c(c1)SCC1CCCCC1C2=O (stereo not drawn) [F, 2-(6,6a,7,8,9,10,10a,11-Octahydro-11-oxodibenzo[b,e]thiepin-3-yl)propionicacid-A] |  | 2/6 | 1.00 | 2/6 | 1.00 |  |  | 6/9 | 1.67 |  |  | inhibition in vivo at 0.2 mg/kg [1, 2]: 8.6%; inhibition in vivo at 0.4 mg/kg [1, 2]: 14.9%; inhibition in vivo at 0.8 mg/kg [1, 2]: 20.5%; inhibition in vivo at 1.6 mg/kg [1, 2]: 28.4%; inhibition in vivo at 3.2 mg/kg [1, 2]: 36.4%; inhibition in vivo at 0.2 mg/kg [1, 4]: 6.7%; inhibition in vivo at 0.4 mg/kg [1, 4]: 11.6%; inhibition in vivo at 0.8 mg/kg [1, 4]: 12.6%; inhibition in vivo at 1.6 mg/kg [1, 4]: 20.3%; inhibition in vivo at 3.2 mg/kg [1, 4]: 30.6%; anti-inflammatory activity compared with the known indomethacin ([1]; in words, from Table 1): comparable or superior to that of the known indomethacin |
| CC(C(=O)O)c1ccc2c(c1)SCC1CCCCC1C2=O (stereo not drawn) [H, Calcium 2-(6,6a,7,8,9,10,10a,11-octahydro-11-oxodibenzo[b,e]thiepin-3-yl)propionate] |  | 1/3 | 1.00 | 2/3 | 1.33 |  |  |  |  |  |  | inhibition in vivo at 1 mg/kg [1, 2]: 31.4%; inhibition in vivo at 4 mg/kg [1, 2]: 39.5%; inhibition in vivo at 1 mg/kg [1, 4]: 26.2%; inhibition in vivo at 4 mg/kg [1, 4]: 35.7% |
| CCOC(=O)C(C)c1ccc2c(c1)SCC1CCCCC1C2=O (stereo not drawn) [I, Ethyl 2-(6,6a,7,8,9,10,10a,11-octahydro-11-oxodibenzo[b,e]thiepin-3-yl)propionate] | 0.00 |  |  | 0/6 | 0.33 |  |  | 3/6 | 1.00 | 42.2% | 38.3% | Number of rats having a score of stomach ulcer of 2 or more/total number of rats used (stomach ulcer; 8 mg/kg p.o.): 0/3; gastrointestinal ulcerogenicity compared with the known aspirin (stomach ulcer): far less gastrointestinal ulcerogenicity than the known aspirin |
| CCCCOC(=O)C(C)c1ccc2c(c1)SCC1CCCCC1C2=O (stereo not drawn) [J, Butyl 2-(6,6a,7,8,9,10,10a,11-octahydro-11-oxodibenzo[b,e]thiepin-3-yl)propionate] |  | 0/3 | 0.33 | 3/6 | 1.33 | 21.5% | 11.5% | 3/6 | 1.50 | 31.8% | 26% |  |
| CC(C(=O)OCc1ccccn1)c1ccc2c(c1)SCC1CCCCC1C2=O (stereo not drawn) [O, 2-Pyridylmethyl 2-(6,6a,7,8,9,10,10a,11-octahydro-11-oxodibenzo[b,e]thiepin-3-yl)propionate] |  |  |  | 2/6 | 0.67 | 31.4% | 28.8% | 4/6 | 1.83 | 30.8% | 30.6% |  |
| CC(C(=O)OCCc1ccccn1)c1ccc2c(c1)SCC1CCCCC1C2=O (stereo not drawn) [P, 2-(2-Pyridyl)ethyl 2-(6,6a,7,8,9,10,10a,11-octahydro-11-oxodibenzo[b,e]thiepin-3-yl)propionate] |  |  |  | 0/6 | 0.17 |  |  | 3/6 | 0.50 | 27.6% | 25.5% | gastrointestinal ulcerogenicity compared with the known aspirin (stomach ulcer): far less gastrointestinal ulcerogenicity than the known aspirin |
| CC(C(=O)NCC(=O)O)c1ccc2c(c1)SCC1CCCCC1C2=O (stereo not drawn) [T, N-Carboxymethyl-2-(6,6a,7,8,9,10,10a,11-octahydro-11-oxodibenzo[b,e]thiepin-3-yl)propionamide] |  |  |  |  |  | 19.9% | 15% |  |  | 43.9% | 28.1% |  |
